As a reminder, the Kd is a measure of binding affinity in units of concentration.

Read-outs that look alike come from different tables or passages of the source. Bridges are numbered along the chain shown (N, C = ends). Primed or numbered codes have the meaning given here. Where no end group is shown, it is not given here. The star is where a group is joined. Biotin = O=C1N[C@H]2[C@H](CS[C@H]2CCCCC(=O)*)N1; Fmoc = O=C(OCC1c2ccccc2-c2ccccc21)*; PEG4′ = not defined here

Experimental findings from US11186613B2, “Solid-phase support comprising IgG-binding peptide, and method for separating IgG” (Kagoshima University, priority 2016, dated 2021) are described below.

The target in one series is IgG. In words: Affinity analysis of IgG-binding peptides by surface plasmon resonance (BIAcore T200), IgG immobilized on sensor chip. The note with it: for ka / kd: peptide 10 nM to 2 μM, HBS-EP buffer pH 7.0. As for the experimental part: Affinity analysis of the purified IgG-binding peptide was carried out according to the following method. Equal amounts of 0.4 M 1-ethyl-3-(3-dimethylaminopropyl)-carbodiimide (EDC) and 0.1 M sulfo-N-hydroxysuccinimide (sulfo-NHS) were mixed and injected onto a CMS sensor chip, which was set in BIAcoreT200 (GE healthcare), at a flow rate of […] for 7 min to activate the sensor chip, and then the IgG was immobilized on the sensor chip under conditions of pH 4.0 (10 mM Na acetate) so as to give an immobilized amount of 4000 to 5000 in RU value. The binding reaction was monitored by injecting the peptide in a concentration from 10 nM to 2 μM at a flow rate of […] for 180 sec while using an HBS-EP buffer (0.01 M HEPES, 0.15 M NaCl, 0.005% TWEEN 20, 3 mM EDTA, pH 7.0), and then the dissociation reaction was measured by washing with the buffer for 600 sec. Binding parameters were analyzed using BlAevalution T100 software.
On the technique in general: SPR reads the build-up and loss of mass on a sensor chip optically.

Series [1] deals with human-derived serum γ-globulin. As to the kind of experiment: Competitive elution with peptide from peptide-immobilized column, SDS-PAGE. The note with it: 2.5 mL of 0.4 mg/mL peptide solution; bands around 25 kDa and 50 kDa on SDS-PAGE. On the procedure:
FIG. 2 illustrates results of SDS-PAGE of fractions fractionated in 0.5 mL that are obtained by eluting proteins with citric acid or the IgG-binding peptide from the column with immobilized peptide prepared in Example 3. The proteins were detected by CBB staining.
To the column prepared by the same method as in Example 3, 1 mg of human-derived serum γ-globulin was fed to adsorb the globulin thereto. The column was washed with the adsorption solution, and then 2.5 mL of a 0.4 mg/mL solution of Peptide a prepared in Example 2 dissolved in the adsorption solution was fed to the column. Each fraction fractionated in 0.5 mL was subjected to SDS-PAGE under reductive conditions in accordance with an ordinary method. Proteins were detected by CBB staining. For comparison, similar operations were carried out also for citric acid elution.

The subject of series [2] is human serum-derived γ-globulin. As to the kind of experiment: Evaluation of alkali resistance: DBC after repeated 0.1 M sodium hydroxide treatment. The note with it: five 0.1 M sodium hydroxide treatments. It counts as physicochemical. As for the experimental part: FIG. 4 illustrates measurement results of DBC of an IgG-binding peptide cross-linked via a linker, prepared in Example 2, and an IgG-binding peptide cross-linked by disulfide, prepared in Comparative Example 1, both of which were treated with sodium hydroxide.
To a 1-mg peptide-immobilized 1-mL column prepared by the same method as in Example 3, 5 mL of 0.1 M sodium hydroxide solution was fed. The column was then washed with the adsorption solution and DBC was measured at a flow rate of 1 mL/min as in Example 5. Subsequently, a cycle of the treatment with the sodium hydroxide solution and the DBC measurement was repeated five times to evaluate the alkali resistance. The variation rate of DBC was determined based on the DBC before the sodium hydroxide treatment as 100%.
As Comparative Example 1, a column with 1 mg of a peptide cross-linked by a disulfide bond immobilized thereon was prepared, and the alkali resistance evaluation was carried out as in Example 5.

For series [3], the system named is human serum-derived γ-globulin. As to the kind of experiment: Separation of human serum-derived γ-globulin on peptide-immobilized column, acidic elution. The note with it: 1 mg peptide on NHS-activated 1-mL column; elution 20 mM citric acid pH 2.5. On the procedure: FIG. 1 illustrates a result of a case where human serum-derived γ-globulin (Wako) was adsorbed to a column with immobilized peptide prepared in Example 3 and eluted with an acidic elution solution (20 mM citric acid, pH 2.5). The horizontal axis represents the volume of the elution liquid and the vertical axis represents the […] concentration measured by absorbance at 280 nm.
A dichloroacetone-cross-linked peptide was immobilized to an NHS-activated prepacked column (GE Healthcare) to carry out various evaluations to assess whether the dichloroacetone-cross-linked peptide can be used as an affinity ligand for human antibody purification.
The peptide-immobilized column was prepared by the following procedures. A syringe was used to feed a solution.
To a 1-mL capacity NHS-activated prepacked column, 5 mL of 1 mM hydrochloric acid was fed to remove an isopropanol solution in the column. […]
The prepared peptide-immobilized column was connected to a liquid chromatography system AKTAexplore (GE Healthcare) and equilibrated with the adsorption solution. […] The elution of proteins from the column was detected by absorbance at 280 nm. […]

[4] abbreviates: SPR, 1:1 binding model, read-out: KD (nM) 1:1 binding.
Where [5] appears, read: SPR, equilibrium value, read-out: KD (nM) Equilibrium value.

With “DCAYH(Xaa1)GELVWCT (SEQ ID NO:1, wherein Xaa1 was arginine and the C-terminus was amidated) ({Biotin-PEG4′}-DCAYHRGELVWCT-NH2; disulfide 2-12 (inferred)) [SEQ ID NO: 1, wherein Xaa1 is R]”, the dissociation constant (Kd) on IgG (setting [4]) stood at 54 nM. At IgG (setting [5]), the dissociation constant (Kd) was determined as 64.5 nM. In the series on IgG (SPR), this substance showed a ka of 4.57E+05 and a kd of 0.0248.

Turning to “GPRCAYH(Xaa1)GELVWCSFH (SEQ ID NO:4, wherein Xaa1 was arginine and the C-terminus was amidated) (GPRCAYHRGELVWCSFH-NH2; not fully specified (N-terminus, bridges); cysteine pairing not given here) [SEQ ID NO: 4, wherein Xaa1 is R]”, the Kd is 42 nM on IgG (setting [4]) and 56 nM at IgG (setting [5]). In the series with IgG (SPR), the ka turned out to be 8.40E+05. This substance also came in with a kd at IgG (SPR) of 0.0353.

As to “Fmoc-HN-PEG4-GPDCAYH(Xaa1)GELVWCTFH (SEQ ID NO:2, wherein Xaa1 was arginine and the C-terminus was amidated) ({Fmoc-PEG4′}-GPDCAYHRGELVWCTFH-NH2; cysteine pairing not given here) [Peptide b]”, on IgG (measured as in Example 1, read-out: Kd (affinity for IgG)), the Kd was determined as 1000 nM.

On to “GPDCAYH(Xaa1)GELVWCTFH (SEQ ID NO:2, wherein Xaa1 was arginine and the C-terminus was amidated) ({Biotin-PEG4′}-GPDCAYHRGELVWCTFH-NH2; bridge 4-14; not fully specified (bridges); printed as GPDCAYH(Xaa1)GELVWCTFH) [Peptide a, N-terminally PEG4-modified, C-terminally amidated; cysteine sulfide groups connected via linker from 1,3-dichloro-2-propanone (linker drawing 11)]”, for which the “elution of adsorbed γ-globulin by peptide solution” value in series [1] is “can be used as a means for elution”. Moreover, in series [2], the “alkali resistance (change in DBC by sodium hydroxide treatments)” value was “no decrease in DBC”. Also, the “usability as ligand for an affinity column (adsorption and acid elution of γ-globulin)” value in series [3] is given as “can be used as a ligand for an affinity column”.

Consider “GPDCAYH(Xaa1)GELVWCTFH (SEQ ID NO:2, wherein Xaa1 was leucine, and the C-terminus was amidated) ({Biotin-PEG4′}-GPDCAYHLGELVWCTFH-NH2; disulfide 4-14 (inferred)) [SEQ ID NO: 2, wherein Xaa1 is L]”, for which the Kd on IgG (setting [4]) was 8.1 nM. Further, in the series on IgG (SPR), the ka worked out at 1.7E+05 and the kd came out at 0.014.

In the case of “GPDCAYH(Xaa1)GELVWCTFH (SEQ ID NO:2, wherein Xaa1 was arginine and the C-terminus was amidated) (GPDCAYHRGELVWCTFH-NH2; not fully specified (N-terminus, bridges); printed as GPDCAYH(Xaa1)GELVWCTFH; cysteine pairing not given here) [SEQ ID NO: 2, wherein Xaa1 is R]”, the Kd at IgG (setting [4]) stood at 9.1 nM. Also, at IgG (setting [5]), the Kd was found to be 10 nM. In the series on IgG (SPR), this substance yielded a ka of 1.57E+06 and a kd of 0.0144.

For the substance “GPDCAYH(Xaa1)GELVWCTFH (SEQ ID NO:2, wherein Xaa1 was lysine, and the C-terminus was amidated) (GPDCAYHXGELVWCTFH; Xaa1=K; C-terminal amide; (8)..(8) Xaa is arginine, lysine, leucine, asparagine, or derivative thereof) [SEQ ID NO: 2, wherein Xaa1 is K]”, on IgG (setting [4]), the Kd came out at 156 nM. Further, the Kd on IgG (setting [5]) is 131 nM. In the series on IgG (SPR), the ka came to 1.25E+06 and the kd is on record as 0.195.

On to “GPDCAYH(Xaa1)GELVWCTFH (SEQ ID NO:2, wherein Xaa1 was acetylated lysine, and the C-terminus was amidated) (GPDCAYHXGELVWCTFH; Xaa1=acetyl-lysine; C-terminal amide; (8)..(8) Xaa is arginine, lysine, leucine, asparagine, or derivative thereof) [SEQ ID NO: 2, wherein Xaa1 is K (Acetyl)]”, for which, at IgG (setting [4]), the Kd stood at 2700 nM. Also, the Kd at IgG (setting [5]) is 2800 nM. In the series with IgG (SPR), this substance yielded a ka of 4.4E+05 and a kd of 0.12.
